Measurements from patent publication US20260262643A1, “HERBICIDAL BENZOXAZINES” (FMC CORPORATION, priority 2022, published 2026).
Read-outs that look alike come from different tables or passages of the source.

Columns and labels:
kochia [1] = experiment: Test A postemergence; format: in vivo, Bassia scoparia; conditions: Bassia scoparia, post-emergence, 240 h; for pest or weed control at 125 g/ha: 125 g ai/ha; for pest or weed control at 500 g/ha: 500 g ai/ha
In short: (§1)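 Plants were grown in loam and sand and treated preemergence or postemergence (one- to two-leaf stage, 2–10 cm) with compound in solvent plus surfactant. Response was scored against untreated controls after 10 greenhouse days, where 0 means no effect and 100 complete control.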

soybean = experiment: Test A postemergence; format: in vivo, Glycine max; conditions: Glycine max, post-emergence, 240 h; for plant injury at 125 g/ha: 125 g ai/ha; for plant injury at 500 g/ha: 500 g ai/ha
In short: as §1

corn [2] = experiment: Test A preemergence; format: in vivo, Zea mays; conditions: Zea mays, pre-emergence, 240 h; for Corn plant response rating (crop injury, 0 = no effect, 100 = complete kill) at 125 g/ha: 125 g ai/ha, visual injury after 10 days, 0 to 100 scale, 0 is no effect, 100 is complete control; for Corn plant response rating (crop injury, 0 = no effect, 100 = complete kill) at 500 g/ha: 500 g ai/ha, 0 to 100 scale (0 no effect, 100 complete control), 10 days
In short: as §1

ryegrass, Italian = experiment: Test A preemergence; format: in vivo, Lolium multiflorum; conditions: Lolium multiflorum, pre-emergence, 240 h, read-out: Plant response rating, Ryegrass, Italian; for pest or weed control at 125 g/ha: 125 g ai/ha, visual injury after 10 days, 0 to 100 scale, 0 is no effect, 100 is complete control; for pest or weed control at 500 g/ha: 500 g ai/ha, 0 to 100 scale (0 no effect, 100 complete control), 10 days
In short: as §1

rice = experiment: Test B flooded paddy test; format: in vivo, Oryza sativa; conditions: Oryza sativa, 312 h; 250 g ai/ha, Flood, 13 days, 0 to 100 scale (0 no effect, 100 complete control); read-out: Plant response rating, Rice
In short: (§2)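 Two-leaf plants, 3 cm flood, in-water application, 13-day greenhouse hold, visual 0–100 rating vs untreated checks.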

ragweed = experiment: Test A preemergence; format: in vivo, Ambrosia artemisiifolia; conditions: Ambrosia artemisiifolia, pre-emergence, 240 h, read-out: Plant response rating, Ragweed; for pest or weed control at 125 g/ha: 125 g ai/ha, visual injury after 10 days, 0 to 100 scale, 0 is no effect, 100 is complete control; for pest or weed control at 500 g/ha: 500 g ai/ha, 0 to 100 scale (0 no effect, 100 complete control), 10 days
In short: as §1

barnyardgrass = experiment: Test B flooded paddy test; format: in vivo, Echinochloa crus-galli; conditions: Echinochloa crus-galli, 312 h, 250 g ai/ha, Flood, 13 days, 0 to 100 scale (0 no effect, 100 complete control); read-out: Plant response rating, Barnyardgrass
In short: as §2

kochia [3] = experiment: Test A preemergence; format: in vivo, Bassia scoparia; conditions: Bassia scoparia, pre-emergence, 240 h, read-out: Plant response rating, Kochia; for pest or weed control at 125 g/ha: 125 g ai/ha, visual injury after 10 days, 0 to 100 scale, 0 is no effect, 100 is complete control; for pest or weed control at 500 g/ha: 500 g ai/ha, 0 to 100 scale (0 no effect, 100 complete control), 10 days
In short: as §1

pigweed, palmer = experiment: Test A preemergence; format: in vivo, Amaranthus palmeri; conditions: Amaranthus palmeri, pre-emergence, 240 h, read-out: Plant response rating, Pigweed, Palmer; for pest or weed control at 125 g/ha: 125 g ai/ha, visual injury after 10 days, 0 to 100 scale, 0 is no effect, 100 is complete control; for pest or weed control at 500 g/ha: 500 g ai/ha, 0 to 100 scale (0 no effect, 100 complete control), 10 days
In short: as §1

horseweed = experiment: Test A postemergence; format: in vivo, Erigeron canadensis; conditions: Erigeron canadensis, post-emergence, 240 h; for pest or weed control at 125 g/ha: 125 g ai/ha; for pest or weed control at 500 g/ha: 500 g ai/ha
In short: as §1

oat, wild = experiment: Test A preemergence; format: in vivo, Avena fatua; conditions: Avena fatua, pre-emergence, 240 h, read-out: Plant response rating, Oat, Wild; for pest or weed control at 125 g/ha: 125 g ai/ha, visual injury after 10 days, 0 to 100 scale, 0 is no effect, 100 is complete control; for pest or weed control at 500 g/ha: 500 g ai/ha, 0 to 100 scale (0 no effect, 100 complete control), 10 days
In short: as §1

corn [4] = experiment: Test A postemergence; format: in vivo, Zea mays; conditions: Zea mays, post-emergence, 240 h; for Corn plant response rating (crop injury, 0 = no effect, 100 = complete kill) at 500 g/ha: 500 g ai/ha
In short: as §1

wheat = experiment: Test A preemergence; format: in vivo, Triticum aestivum; conditions: Triticum aestivum, pre-emergence, 240 h, read-out: Plant response rating, Wheat; for plant injury at 125 g/ha: 125 g ai/ha, visual injury after 10 days, 0 to 100 scale, 0 is no effect, 100 is complete control; for plant injury at 500 g/ha: 500 g ai/ha, 0 to 100 scale (0 no effect, 100 complete control), 10 days
In short: as §1

ducksalad = experiment: Test B flooded paddy test; format: in vivo, Heteranthera limosa; conditions: Heteranthera limosa, 312 h, 250 g ai/ha, Flood, 13 days, 0 to 100 scale (0 no effect, 100 complete control); read-out: Plant response rating, Ducksalad
In short: as §2

[5] = postemergence, 10 days, visual injury, 0 to 100 scale (0 no effect, 100 complete control), read-out: Plant response rating, Kochia
[6] = Postemergence, 0 to 100 scale, read-out: Plant response rating, Kochia
[7] = postemergence, 10 days, visual injury, 0 to 100 scale (0 no effect, 100 complete control), read-out: Plant response rating, Soybean
[8] = Postemergence, 0 to 100 scale, read-out: Plant response rating, Soybean
[9] = postemergence, 10 days, visual injury, 0 to 100 scale (0 no effect, 100 complete control), read-out: Plant response rating, Horseweed
[10] = Postemergence, 0 to 100 scale, read-out: Plant response rating, Horseweed
[11] = 125 g ai/ha, postemergence, 10 days, visual injury, 0 to 100 scale (0 no effect, 100 complete control)

| Compound | pest or weed control at 125 g/ha (kochia [1]; [5]) [%] | pest or weed control at 500 g/ha (kochia [1]; [6]) [%] | plant injury at 125 g/ha (soybean; [7]) [%] | Corn plant response rating (crop injury, 0 = no effect, 100 = complete kill) at 125 g/ha (corn [2]) [%] | Corn plant response rating (crop injury, 0 = no effect, 100 = complete kill) at 500 g/ha (corn [2]) [%] | pest or weed control at 125 g/ha (ryegrass, Italian) [%] | pest or weed control at 500 g/ha (ryegrass, Italian) [%] | plant injury at 250 g/ha (rice) [%] | pest or weed control at 125 g/ha (ragweed) [%] | pest or weed control at 500 g/ha (ragweed) [%] | pest or weed control at 250 g/ha (barnyardgrass) [%] | pest or weed control at 125 g/ha (kochia [3]) [%] | pest or weed control at 500 g/ha (kochia [3]) [%] | pest or weed control at 125 g/ha (pigweed, palmer) [%] | pest or weed control at 500 g/ha (pigweed, palmer) [%] | pest or weed control at 125 g/ha (oat, wild) [%] | pest or weed control at 500 g/ha (oat, wild) [%] | plant injury at 125 g/ha (wheat) [%] | plant injury at 500 g/ha (wheat) [%] | pest or weed control at 250 g/ha (ducksalad) [%] | also measured |
| --- | --- | --- | --- | --- | --- | --- | --- | --- | --- | --- | --- | --- | --- | --- | --- | --- | --- | --- | --- | --- | --- |
| C#Cc1ncn(-c2cccc(C(=O)N3C[C@H](C)Oc4c(C)cccc43)c2)n1 [Compound 64, [(2S)-2,3-Dihydro-2,8-dimethyl-4H-1,4-benzoxazin-4-yl][3-(3-ethynyl-1H-1,2,4-triazol-1-yl)phenyl]methanone] | 60 | 80 | 80 | 20 | 50 | 90 | 100 | 0 | 0 | 0 | 0 | 80 | 90 | 40 | 100 | 30 | 70 | 20 | 40 | 25 | plant injury at 500 g/ha (soybean; [8]): 100%; pest or weed control at 125 g/ha (horseweed; [9]): 0%; pest or weed control at 500 g/ha (horseweed; [10]): 40%; Corn plant response rating (crop injury, 0 = no effect, 100 = complete kill) at 125 g/ha (corn [4]; [11]): 10%; Corn plant response rating (crop injury, 0 = no effect, 100 = complete kill) at 500 g/ha (corn [4]; Postemergence, 0 to 100 scale): 80% |
| COc1ccc(-n2cncn2)cc1C(=O)N1C[C@H](C)Oc2c(C)cccc21 [Compound 63, [(2S)-2,3-Dihydro-2,8-dimethyl-4H-1,4-benzoxazin-4-yl][2-methoxy-5-(1H-1,2,4-triazol-1-yl)phenyl]methanone] | 10 | 20 | 100 | 60 | 80 | 90 | 100 | 0 | 0 | 40 | 0 | 30 | 40 | 40 | 90 | 60 | 90 | 40 | 90 | 90 | plant injury at 500 g/ha (soybean; [8]): 100%; pest or weed control at 125 g/ha (horseweed; [9]): 20%; pest or weed control at 500 g/ha (horseweed; [10]): 40%; Corn plant response rating (crop injury, 0 = no effect, 100 = complete kill) at 125 g/ha (corn [4]; [11]): 80%; Corn plant response rating (crop injury, 0 = no effect, 100 = complete kill) at 500 g/ha (corn [4]; Postemergence, 0 to 100 scale): 80% |
| CCc1ncn(-c2ccc(OC)c(C(=O)N3C[C@H](C)Oc4c(Cl)cccc43)c2)n1 [Compound 88, [(2S)-8-Chloro-2,3-dihydro-2-methyl-4H-1,4-benzoxazin-4-yl][5-(3-ethyl-1H-1,2,4-triazol-1-yl)-2-methoxyphenyl]methanone] | – | – | – | 40 | 40 | 100 | 100 | 10 | 60 | 100 | 45 | 90 | 100 | 100 | 100 | 90 | 90 | 20 | 40 | 55 | pest or weed control at 125 g/ha (kochia [1]; postemergence, 10 days, 0 to 100 scale (0 no effect, 100 complete control), read-out: Kochia plant response rating): 90%; pest or weed control at 500 g/ha (kochia [1]; [5]): 100%; plant injury at 125 g/ha (soybean; postemergence, 10 days, 0 to 100 scale (0 no effect, 100 complete control), read-out: Soybean plant response rating): 100%; plant injury at 500 g/ha (soybean; [7]): 100%; pest or weed control at 125 g/ha (horseweed; postemergence, 10 days, 0 to 100 scale (0 no effect, 100 complete control), read-out: Horseweed plant response rating): 40%; pest or weed control at 500 g/ha (horseweed; [9]): 90%; plant injury at 125 g/ha (corn [4]; 125 g ai/ha, postemergence, 10 days, 0 to 100 scale (0 no effect, 100 complete control), read-out: Corn plant response rating): 90%; Corn plant response rating (crop injury, 0 = no effect, 100 = complete kill) at 500 g/ha (corn [4]; postemergence, 10 days, visual injury, 0 to 100 scale (0 no effect, 100 complete control)): 90% |
